Laboratory results reported in patent US20240158446A1, “CYCLIC COMPOUND HAVING SELECTIVE INHIBITORY ACTION ON KRAS OVER HRAS AND NRAS” (CHUGAI SEIYAKU KABUSHIKI KAISHA, priority 2021, published 2024).

What was measured:
[1] = molecular target: GDP-bound HRAS wild-type protein (Homo sapiens, UniProt P01112); test: Binding to HRAS by surface plasmon resonance (SPR), Single Cycle Kinetics; conditions: SPR, GDP-bound HRAS wild-type protein vs GDP-bound KRAS wild-type protein
[2] = molecular target: GDP-bound NRAS wild-type protein (Homo sapiens, UniProt P01111); test: Binding to NRAS by surface plasmon resonance (SPR), Single Cycle Kinetics; conditions: SPR, GDP-bound NRAS wild-type protein vs GDP-bound KRAS wild-type protein
Sequence of GDP-bound NRAS wild-type protein (P01111 whole entry): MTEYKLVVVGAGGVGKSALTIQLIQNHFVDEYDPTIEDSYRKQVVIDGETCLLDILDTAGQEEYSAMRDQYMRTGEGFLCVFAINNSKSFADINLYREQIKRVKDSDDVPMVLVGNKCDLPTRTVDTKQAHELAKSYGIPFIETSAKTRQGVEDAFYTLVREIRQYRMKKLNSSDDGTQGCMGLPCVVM

Sequence of GDP-bound HRAS wild-type protein (P01112 whole entry): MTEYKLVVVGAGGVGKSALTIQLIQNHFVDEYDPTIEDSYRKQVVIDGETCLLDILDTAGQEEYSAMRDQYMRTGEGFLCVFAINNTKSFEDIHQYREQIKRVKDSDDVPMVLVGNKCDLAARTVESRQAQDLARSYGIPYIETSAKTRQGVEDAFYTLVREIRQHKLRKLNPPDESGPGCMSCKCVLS

| Compound | HRAS/KRAS (ratio of KD value for HRAS to KD value for KRAS) [1] | NRAS/KRAS (ratio of KD value for NRAS to KD value for KRAS) [2] |
| --- | --- | --- |
| CCO[C@@H]1C[C@H]2C(=O)NC3(CCC3)C(=O)N(C)[C@@H](C(CC)CC)C(=O)N(C)[C@H](C(=O)N3CCOCC3)CC(=O)N(C)[C@@H](CC(C)C)C(=O)N[C@@H]([C@@H](C)CC)C(=O)N(C)CC(=O)N(C)[C@H]3CCCCCN(C3=O)[C@@H](Cc3ccc(C(F)(F)F)cc3)C(=O)N(C)CC(=O)N[C@@H](CCc3cc(F)c(C(F)(F)F)c(F)c3)C(=O)N2C1 [PP0820] | B (a compound having 3 or more and less than 10 is denoted as B) | A (a compound having 10 or more and less than 20 is denoted as A) |
| CCO[C@@H]1C[C@H]2C(=O)NC3(CCC3)C(=O)N(C)[C@@H]([C@H](C)CC)C(=O)N(C)[C@H](C(=O)N3CCOCC3)CC(=O)N(C)[C@@H](CC(C)C)C(=O)N[C@@H]([C@@H](C)CC)C(=O)N(C)CC(=O)N(C)[C@H]3CCCCCN(C3=O)[C@@H](Cc3ccc(C(F)(F)F)cc3)C(=O)N(C)CC(=O)N[C@@H](CCc3cc(F)c(C(F)(F)F)c(F)c3)C(=O)N2C1 [PP0821] | B (a compound having 3 or more and less than 10 is denoted as B) | A (a compound having 10 or more and less than 20 is denoted as A) |
| CCO[C@@H]1C[C@H]2C(=O)NC3(CCC3)C(=O)N(C)[C@@H](C3CCCC3)C(=O)N(C)[C@H](C(=O)N3CCOCC3)CC(=O)N(C)[C@@H](CC(C)C)C(=O)N[C@@H]([C@@H](C)CC)C(=O)N(C)CC(=O)N(C)[C@H]3CC=C(C)CN(C3=O)[C@@H](Cc3ccc(C(F)(F)F)cc3)C(=O)N(C)CC(=O)N[C@@H](CCc3cc(F)c(C(F)(F)F)c(F)c3)C(=O)N2C1 [PP0826] | B (a compound having 3 or more and less than 10 is denoted as B) | C (A compound having a KD ratio of 0.1 or more and less than 3 is denoted as C) |
| CCO[C@@H]1C[C@H]2C(=O)NC3(CCC3)C(=O)N(C)[C@@H](C3CCCC3)C(=O)N(C)[C@H](C(=O)N3CCOCC3)CC(=O)N(C)[C@@H](CC(C)C)C(=O)N[C@@H]([C@@H](C)CC)C(=O)N(C)CC(=O)N(C)[C@H]3C[C@H]4C[C@H]4CN(C3=O)[C@@H](Cc3ccc(C(F)(F)F)cc3)C(=O)N(C)CC(=O)N[C@@H](CCc3cc(F)c(C(F)(F)F)c(F)c3)C(=O)N2C1 [PP0829] | C (A compound having a KD ratio of 0.1 or more and less than 3 is denoted as C) | B (a compound having 3 or more and less than 10 is denoted as B) |
| CC[C@H](C)[C@@H]1NC(=O)[C@H](COC)N(C)C(=O)C[C@@H](C(=O)N2CCOCC2)N(C)C(=O)[C@H](C2CCCC2)N(C)C(=O)C2(CCC2)NC(=O)[C@@H]2CC(F)(F)CN2C(=O)[C@H](CCc2cc(F)c(C(F)(F)F)c(F)c2)NC(=O)CN(C)C(=O)[C@H](Cc2ccc(C(F)(F)F)cc2)N2CCCCC[C@@H](C2=O)N(C)C(=O)CN(C)C1=O [PP0834] | B (a compound having 3 or more and less than 10 is denoted as B) | A (a compound having 10 or more and less than 20 is denoted as A) |
| CCOC[C@H]1C(=O)N[C@@H]([C@@H](C)CC)C(=O)N(C)CC(=O)N(C)[C@H]2CCCCCN(C2=O)[C@@H](Cc2ccc(C(F)(F)F)cc2)C(=O)N(C)CC(=O)N[C@@H](CCc2cc(F)c(C(F)(F)F)c(F)c2)C(=O)N2C[C@H](OCC)C[C@H]2C(=O)NC2(CCC2)C(=O)N(C)[C@@H](C2CCCC2)C(=O)N(C)[C@H](C(=O)N2CCOCC2)CC(=O)N1C [PP0851] | B (a compound having 3 or more and less than 10 is denoted as B) | B (a compound having 3 or more and less than 10 is denoted as B) |
| CCO[C@@H]1C[C@H]2C(=O)NC3(CCC3)C(=O)N(C)[C@@H](C3CCCC3)C(=O)N(C)[C@H](C(=O)N3CCOCC3)CC(=O)N(C)[C@@H](COC3CC3)C(=O)N[C@@H]([C@@H](C)CC)C(=O)N(C)CC(=O)N(C)[C@H]3CCCCCN(C3=O)[C@@H](Cc3ccc(C(F)(F)F)cc3)C(=O)N(C)CC(=O)N[C@@H](CCc3cc(F)c(C(F)(F)F)c(F)c3)C(=O)N2C1 [PP0852] | B (a compound having 3 or more and less than 10 is denoted as B) | B (a compound having 3 or more and less than 10 is denoted as B) |
| CC[C@H](C)[C@@H]1NC(=O)[C@H](CC(C)C)N(C)C(=O)C[C@@H](C(=O)N2CCOCC2)N(C)C(=O)[C@H](C2CCCC2)N(C)C(=O)C2(CCC2)NC(=O)[C@@H]2C[C@@H](O)CN2C(=O)[C@H](CCc2cc(F)c(C(F)(F)F)c(F)c2)NC(=O)CN(C)C(=O)[C@H](Cc2ccc(C(F)(F)F)cc2)N2CCCCC[C@@H](C2=O)N(C)C(=O)CN(C)C1=O [PP0871] | B (a compound having 3 or more and less than 10 is denoted as B) | B (a compound having 3 or more and less than 10 is denoted as B) |
| CC[C@H](C)[C@@H]1NC(=O)[C@H](CC(C)C)N(C)C(=O)C[C@@H](C(=O)N2CCOCC2)N(C)C(=O)[C@H](C2CCCC2)N(C)C(=O)C2(CCC2)NC(=O)[C@@H]2[C@@H](O)CCN2C(=O)[C@H](CCc2cc(F)c(C(F)(F)F)c(F)c2)NC(=O)CN(C)C(=O)[C@H](Cc2ccc(C(F)(F)F)cc2)N2CCCCC[C@@H](C2=O)N(C)C(=O)CN(C)C1=O [PP0872] | A (a compound having 10 or more and less than 20 is denoted as A) | A (a compound having 10 or more and less than 20 is denoted as A) |
| CC[C@H](C)[C@@H]1NC(=O)[C@H](CC(C)C)N(C)C(=O)C[C@@H](C(=O)N2CCOCC2)N(C)C(=O)[C@H](C2CCCC2)N(C)C(=O)C2(CCC2)NC(=O)[C@@H]2[C@H](O)CCN2C(=O)[C@H](CCc2cc(F)c(C(F)(F)F)c(F)c2)NC(=O)CN(C)C(=O)[C@H](Cc2ccc(C(F)(F)F)cc2)N2CCCCC[C@@H](C2=O)N(C)C(=O)CN(C)C1=O [PP0873] | B (a compound having 3 or more and less than 10 is denoted as B) | A (a compound having 10 or more and less than 20 is denoted as A) |
| C=CCCC[C@H]1C(=O)N[C@@H]([C@@H](C)CC)C(=O)N(C)CC(=O)N(C)[C@H]2CCCCCN(C2=O)[C@@H](Cc2ccc(C(F)(F)F)cc2)C(=O)N(C)CC(=O)N[C@@H](CCc2cc(F)c(C(F)(F)F)c(F)c2)C(=O)N2C[C@H](OCC)C[C@H]2C(=O)N[C@](C)(CC=C)C(=O)N(C)[C@@H](C2CCCC2)C(=O)N(C)[C@H](C(=O)N2CCOCC2)CC(=O)N1C [PP0880] | B (a compound having 3 or more and less than 10 is denoted as B) | B (a compound having 3 or more and less than 10 is denoted as B) |
| CCCN1C(=O)CN(C)C(=O)CN(C)C(=O)[C@H]([C@@H](C)CC)NC(=O)[C@@H]2CCCCOc3ccc(cc3)C[C@H]1C(=O)N(C)CC(=O)N[C@@H](CCc1cc(F)c(C(F)(F)F)c(F)c1)C(=O)N1C[C@H](OCC)C[C@H]1C(=O)NC1(CCCC1)C(=O)N(C)[C@@H](C1CCCC1)C(=O)N(C)[C@H](C(=O)N(C)C)CC(=O)N2C [PP0894] | C (A compound having a KD ratio of 0.1 or more and less than 3 is denoted as C) | C (A compound having a KD ratio of 0.1 or more and less than 3 is denoted as C) |
| CCO[C@@H]1C[C@H]2C(=O)NC3(CCC3)C(=O)N(C)[C@@H](C3CCCC3)C(=O)N(C)[C@H](C(=O)N(C)C)CC(=O)N(C)[C@@H](CC)C(=O)N[C@@H]([C@@H](C)CC)C(=O)N(C)CC(=O)N(C)[C@H]3CCCCCN(C3=O)[C@@H](Cc3ccc4ccsc4c3)C(=O)N(C)CC(=O)N[C@@H](CCc3cc(F)c(C(F)(F)F)c(F)c3)C(=O)N2C1 [PP0910] | B (a compound having 3 or more and less than 10 is denoted as B) | B (a compound having 3 or more and less than 10 is denoted as B) |
| CCO[C@@H]1C[C@H]2C(=O)NC3(CCC3)C(=O)N(C)[C@@H](C3CCCC3)C(=O)N(CC)[C@H](C(=O)N3CCOCC3)CC(=O)N(C)[C@@H](CCC(Cl)Cl)C(=O)N[C@@H]([C@@H](C)CC)C(=O)N(C)CC(=O)N(C)[C@H]3CCCCCN(C3=O)[C@@H](Cc3ccc(C(F)(F)F)cc3)C(=O)N(C)CC(=O)N[C@@H](CCc3cc(F)c(C(F)(F)F)c(F)c3)C(=O)N2C1 [PP0949] | A (a compound having 10 or more and less than 20 is denoted as A) | A (a compound having 10 or more and less than 20 is denoted as A) |
| CC[C@H](C)[C@@H]1NC(=O)[C@H](CC(C)C)N(C)C(=O)C[C@@H](C(=O)N2CCOCC2)N(C)C(=O)[C@H](C2CCCC2)N(C)C(=O)C2(CCCC2)NC(=O)[C@@H]2CCCN2C(=O)[C@H](CCc2cc(F)c(C(F)(F)F)c(F)c2)NC(=O)CN(C)C(=O)[C@H](Cc2ccc(F)cc2)N2CCCCC[C@@H](C2=O)N(C)C(=O)CN(C)C1=O [PP0964] | B (a compound having 3 or more and less than 10 is denoted as B) | B (a compound having 3 or more and less than 10 is denoted as B) |
| CCO[C@@H]1C[C@H]2C(=O)NC3(CCCC3)C(=O)N(C)[C@@H](C3CCCC3)C(=O)N(C)[C@H](C(=O)N3CCOCC3)CC(=O)N(C)[C@@H](CC(C)C)C(=O)N[C@@H]([C@@H](C)CC)C(=O)N(C)CC(=O)N(C)[C@H]3CCCCCN(C3=O)[C@@H](Cc3ccc(F)cc3)C(=O)N(C)CC(=O)N[C@@H](CCc3ccc(C(F)(F)F)c(Cl)c3)C(=O)N2C1 [PP0965] | B (a compound having 3 or more and less than 10 is denoted as B) | B (a compound having 3 or more and less than 10 is denoted as B) |
